Measurements as given in PubChem BioAssay AID179 (DTP/NCI, 2004).
Calls of active or inactive are those of the source.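 How the source made its calls: active means compounds giving half or more protection of infected cells from virus-caused growth loss, again on retest; inactive means the rest.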 Where a SMILES comes first, the peptide text is derived from it.

System: CEM cells HIV-1 protection, formazan growth assay
Test: NCI AIDS Antiviral Assay
Details: for IC50: measured here: growth of uninfected CEM cells
Protocol: The ability of compounds to protect human CEM cells from HIV-1 infection is measured as a screen for new compounds capable of inhibiting the HIV virus. Five concentrations of drug were tested on uninfected and infected cells and cell growth was measured using a soluble formazan assay. […] Compounds that provided at least 50% protection were retested. Compounds that provided at least 50% protection on retest were listed as moderately active. Compounds that reproducibly provided 100% protection were listed as confirmed active. […] Note that the inability to provide protection could be due to toxicity.

| SMILES | outcome | EC50 [µM] | IC50 [µM] |
| --- | --- | --- | --- |
| CCN=C(CC(=O)C12CC3CC(CC(C3)C1)C2)N(CC)CC | inactive | – | – |
| Cc1sccc1C(=S)Nc1ccc(Cl)c(/C=N/OC(C)(C)C)c1 | – | 14.1 | 14.8 |
| c1ccc2c(c1)Cc1cn3c(nc1-2)nc1ccccc13 | – | > 200 | 129 |
| CC(C)(C)c1cc(C(P(=O)(O)O)P(=O)(O)O)cc(C(C)(C)C)c1O | – | > 525 | 331 |
| O=C(CCC(=O)Nc1ccccc1C(F)(F)F)N/N=C1\C(=N\NC(=O)CCC(=O)Nc2ccccc2C(F)(F)F)C(c2ccc3c(c2)OCO3)Oc2ccccc21 (stereo not drawn) | – | > 23.4 | > 23.4 |
| CC[C@H]1[C@@H](C)C=C[C@@H](C)N1S(=O)(=O)c1ccc(C)cc1 | – | > 17.8 | > 17.8 |
| N#C/C(C(=S)NCc1ccccc1)=C1/Nc2ccccc2O1 | – | > 200 | 33.1 |
| c1ccc(N=C2SC(=NNc3ccccc3)SC2=Nc2ccccc2)cc1 | – | > 200 | > 200 |
| O=c1c(O)c(O)c(=O)c(=O)c1=O | inactive | – | – |
| O=S(=O)(O)CCO | – | > 200 | > 200 |
| CC(C)C(NC(=O)C(N)CCCCN)C(=O)NC(CCCCN)C(=O)NCC(=O)NC(C(=O)O)C(C)O (stereo not drawn) (H-KVKGT-OH; configuration not given here) | inactive | – | – |
| CC1NOC(=O)C1N=Nc1ccc(Cl)cc1Cl (stereo not drawn) | – | > 36.3 | > 36.3 |
| CC(NC(=O)C(Cc1ccc(OC(=O)c2ccccc2)cc1)NC(=O)OC(C)(C)C)C(=O)NCC(=O)NC(Cc1ccccc1)NC(=O)OCc1ccccc1 (stereo not drawn) | – | > 200 | 110 |
| C=C(C)CN1C(=O)C(C)S/C1=N/N=C1/SCC(=O)N1C (stereo not drawn) | – | > 42.7 | > 42.7 |
| CC1CC[C@@H](C(C)C)[C@H](Oc2nnc(C3OC(CO)C(O)C3O)o2)C1 (stereo partly drawn) | – | > 200 | > 200 |
| CC(C)CCCC(C)[C@H]1CC[C@H]2[C@@H]3CC[C@H]4C[C@@H](CCC=C(c5cc(Cl)c(OC(=O)c6ccccc6)c(C(=O)O)c5)c5cc(Cl)c(OC(=O)c6ccccc6)c(C(=O)O)c5)CC[C@]4(C)[C@H]3CC[C@]12C (stereo partly drawn) | – | > 200 | > 200 |
| CC1(C)CNCC2(C)OCCCCCCCCCCOC3(C)CNCC(C)(C)[N-]C(=O)C(C)(CNCC(C)(C)[N-]C3=O)OCCCCCCCCCCOC(C)(CNCC(C)(C)[N-]C2=O)C(=O)[N-]1.[Ni+2].[Ni+2] | – | > 200 | – |
| Cc1ccc(S(=O)(=O)CNC(=S)CCCC(=S)NCS(=O)(=O)c2ccc(C)cc2)cc1 | inactive | – | – |
| CC1CCCc2c(C#N)c(N)nc(-c3ccc(Cl)cc3)c21 (stereo not drawn) | – | > 200 | 26.9 |
| COc1cc(C=C2C(=O)NC(=O)NC2=O)ccc1OCc1ccccc1 | – | > 93.3 | 89.1 |
| CCOC(=O)C(=Cc1cccc(OC)c1)C(=O)OCC | – | > 129 | 14.8 |

| SMILES | outcome | EC50 [µM] | IC50 [µM] |
| --- | --- | --- | --- |
| C=C([Si](C)(C)C)[Si](C)(C)C | – | > 209 | > 209 |
| Cc1c(C(=O)Nc2ccccc2)nnn1-c1ccnc2cc(C(F)(F)F)ccc12 | – | > 200 | > 200 |
| Nc1nc2c(nc(N)n2Cc2ccccc2)c(=O)[nH]1 | – | > 74.1 | > 74.1 |
| CCCOC1=NC2=NC(OCCC)=NC3=C(Br)C=C(Br)C(=N1)N23 | – | > 42.7 | > 42.7 |
| CC(C)(C)C(=O)/C=C/c1cccc([N+](=O)[O-])c1 | – | > 58.9 | 8.71 |
| CC(C)C(=O)NCC[C@@H](CNC(=O)OC(C)(C)C)NC(=O)OC(C)(C)C | – | > 200 | > 200 |
| C#Cc1cc(CN(CC(=O)OC(C)(C)C)CC(=O)OC(C)(C)C)nc(CN(CC(=O)OC(C)(C)C)CC(=O)OC(C)(C)C)c1 | – | > 11.5 | 0.204 |
| Cc1cc2nc(C=C(C(F)(F)F)C(F)(F)F)sc2cc1C | – | > 20 | 3.63 |
| CN(CCO)CNC(=O)C1=C(O)C2(O)C(=O)C3=C(O)c4c(O)cccc4C(C)(O)C3CC2C(N(C)C)C1=O (stereo not drawn) | – | > 178 | > 178 |
| COc1cc(/C=C/C(C)=O)ccc1OP(=O)(O)O | – | > 200 | > 200 |
| O=c1c2c([nH]c3nccn13)CCC2 | – | > 200 | > 200 |
| O=C(O)C1(Cc2ccccc2)Cc2ccccc2C1 | – | > 200 | > 200 |
| CC(=O)N=C1N(/C=C2\C(=O)Oc3ccccc3C2=O)C(=O)/C(=C/c2ccc(Cl)cc2Cl)N1C | – | > 200 | 34.7 |
| C[C@H]1S[C@@H](c2ccc(Cl)cc2Cl)N(NC(=O)c2ccncc2)C1=O | – | > 200 | 74.1 |
| O=C1C(Cl)=C(c2ccc(Cl)s2)C(=O)c2ccccc21 | – | > 42.7 | 7.59 |
| CC/C(=C(\C#N)c1ccc(OC)cc1)c1ccc(N(C)C)cc1 | – | > 20 | 0.871 |
| O=c1[nH]c(NCc2cccnc2)nc2nc[nH]c12 | – | > 200 | > 200 |
| N#CC(C#N)=Cc1ccc(F)cc1 | – | > 79.4 | > 79.4 |
| CC(=Nc1ccccc1C(=O)[O-])c1c([O-])ccc2c(C)cc(=O)oc12.[OH3+].[OH3+].[OH3+].[Zn+2] | – | > 2.29 | > 2.29 |
| Cc1cc(O)c2c3c1C(=O)Oc1c(CO)c(O)c(C(=O)O)c(c1O3)C=NN=Cc1c3c(c(CO)c(O)c1C(=O)O)OC(=O)c1c(C)cc(O)c(c1O3)C=NN=C2 | inactive | – | – |
| CCOC(=O)CNC(=O)C(CSSCC(NC(=O)OCc1ccccc1)C(=O)O)NC(=O)OCc1ccccc1 (stereo not drawn) | – | > 200 | > 200 |

| SMILES | outcome | EC50 [µM] | IC50 [µM] |
| --- | --- | --- | --- |
| CC(=O)OC1C(COC(=O)c2ccccc2)OC(Nc2ncc(-c3ccc(Br)cc3)s2)C(OC(=O)c2ccccc2)C1OC(=O)c1ccccc1 (stereo not drawn) | – | > 200 | 20.4 |
| CN(C)C=NCc1ccc2c(c1)OCO2 | – | 51.3 | 479 |
| Cc1cc(C)nc(NC(=S)Nc2ccccc2Cl)c1 | – | > 200 | > 200 |
| CC1=NOC(C)(O)/C1=N/O (stereo not drawn) | – | > 200 | 158 |
| COc1ccc(C(=O)/C=C/c2ccc(OCC(=O)N3CCN(c4ccccc4)CC3)cc2)cc1 | – | > 29.5 | > 29.5 |
| N#Cc1c(O)c(C=O)c(=O)n2c1[nH]c1ccccc12 | – | > 200 | 170 |
| CCOC(=O)/C=C/C1(CCOC(C)=O)CCCCC1 | – | > 200 | 174 |
| COC1=NC2=NC(OC)=NC3=C(Br)C=C(Br)C(=N1)N23 | – | > 9.77 | > 9.77 |
| Cc1cc2c(cc1C)NC(=O)C(NC(=O)/C=C/c1ccccc1)C=N2 (stereo not drawn) | – | > 56.2 | 38.9 |
| O=C1c2ccccc2C(=O)c2nc3c(O)cccc3cc21 | – | > 19.1 | > 19.1 |
| O=c1c2c3ccccc3[nH]c2c2cccc3c2n1CCC3 | – | > 200 | 61.7 |
| OC1CC2C=CCC(C1)C2 (stereo not drawn) | inactive | – | – |
| N/C(=N/N=C/c1cccnc1)NO | inactive | – | – |
| O=C1C=C2CCC[C@H]3OC(=O)C[C@@]23CC1 | inactive | – | – |
| Cc1ccc(S(=O)(=O)Nn2c(-c3ccccc3)c(C#N)c(-c3ccc(Cl)cc3)c(C#N)c2=O)cc1 | – | > 200 | 38.9 |
| CC1=C(C(=O)Nc2cccc3c2C(=O)NC3=O)CC(C(=O)Nc2cccc3c2C(=O)NC3=O)=C(C)N1 | – | > 200 | > 200 |
| Cc1nc2ccccc2nc1CC(=N)c1ccccc1 | – | > 200 | 61.7 |
| CC(=O)c1ccc(NC(=O)CSc2nc(C)nc3c2sc(=S)n3-c2ccccc2)cc1 | – | > 200 | > 200 |
| CC(=O)NNc1nc(C)c(C(/C=C/c2ccc(NC(C)=O)cc2)=N/NS(=O)(=O)c2ccc(C)cc2)s1 | – | > 57.5 | > 57.5 |
